In patent US8158670B2 (priority 1996, dated 2012):
Like-named read-outs stand apart in the source and are kept apart here.

Key:
[1] = system: Vascular smooth muscle cells (BO54); assay: Scratch-migration assay; type: cell-based, baboon; parameters: key: −=no toxicity; +1=minimal; +2=mild; +3=moderate; +4=marked toxicity; conditions: Continuous Exposure, 1.0 μg/mL
Method: (§1) Vascular smooth muscle cells (BO54) were derived from explants of baboon aortic smooth muscle, as described in Example 10. The cells were grown in flat bottom, six well tissue culture plates, which hold about 5 ml of medium. The vascular smooth muscle cells were plated at 200,000 cells/well and placed at 37° C. in a humidified 5% CO2 incubator for 18 hours. The wells were then scratched with a sterile portion of a single edge razor blade that was held by clamp or pliers and was brought aseptically into contact with the bottom of the well at a 90° angle. The cells from a small area along the scratch were removed by a sterile cotton tipped applicator while the blade was in contact with the bottom of the well. After incubation, the presence of cells in the “scratched” area is indicative of cell migration across the scratch line.
Briefly, a stock solution of cytochalasin B (Sigma Chemical Co.) in dimethyl sulfoxide (DMSO) at 1 mg/ml was prepared. […]
In this Table, “M” indicates Migration Grade. wherein −=no migration; +1=minimal; +2=mild; +3=moderate; and +4=marked (maximum density; limit of cell contact inhibition) migration of vascular smooth muscle cells into the cleared area adjacent to the scratch. […] The migration results are expressed as “Grade in the Cleared Area of the Well/Grade in an Undisturbed Region of the Well.” The toxicity values represent a grade for all cells in each well.

[2] = pig, in vivo
[3] = system: vascular smooth muscle cells of balloon-traumatized arteries; type: in vivo, pig; conditions: relative to a PBS control
[4] = system: Vascular smooth muscle cells (BO54); assay: Scratch-migration assay; type: cell-based, baboon; parameters: key: −=no migration; +1=minimal; +2=mild; +3=moderate; +4=marked (maximum density; limit of cell contact inhibition) migration
Method: as §1
(§2) Briefly, a stock solution of cytochalasin B (Sigma Chemical Co.) in dimethyl sulfoxide (DMSO) at 1 mg/ml was prepared. Test dilutions of cytochalasin B or control medium were added. Each experiment included two sets of plates:
(§3) A set: Test agent exposure for 1, 3, 6, 8 and 10 days only; and
(§4) B set: Test agent exposure for 1, 3, 6, 8 and 10 days, followed by a seven day recovery time with control medium.
(§5) Both sets of plates were fixed (10% formalin in PBS) and stained (0.02% crystal violet) at the end of the timed exposures. Test concentrations for cytochalasin B were 1, 0.1 and 0.01 μg/ml, and a negative medium control was included. Fresh medium and drug were supplied 3 times per week.
(§6) In this Table, “M” indicates Migration Grade. wherein −=no migration; +1=minimal; +2=mild; +3=moderate; and +4=marked (maximum density; limit of cell contact inhibition) migration of vascular smooth muscle cells into the cleared area adjacent to the scratch. In this Table, “T” denotes a morphological Toxicity Grade, wherein −=no toxicity; +1=minimal; +2=mild; +3=moderate; and +4=marked toxicity. The migration results are expressed as “Grade in the Cleared Area of the Well/Grade in an Undisturbed Region of the Well.” The toxicity values represent a grade for all cells in each well.

[5] = system: Vascular smooth muscle (BO54) cells; type: cell-based, baboon; conditions: 5 minute exposure
[6] = system: Vascular smooth muscle (BO54) cells; type: cell-based, baboon; conditions: 5 minute exposure; remark: listed apart in the source
[7] = system: Vascular smooth muscle cells (BO54); assay: Scratch-migration assay; type: cell-based, baboon; parameters: key to Migration Grade in the Cleared Area of the Well / Migration Grade in an Undisturbed Region of the Well: −=no migration; +1=minimal; +2=mild; +3=moderate; +4=marked (maximum density; limit of cell contact inhibition) migration
Method: as §1, §2, §3, §4, §5, §6

[8] = Day 3, Continuous Exposure, 1.0 μg/mL
[9] = Day 3 exposure, 7-day Recovery Post Exposure, 1.0 μg/mL
[10] = Day 6, Continuous Exposure, 0.1 μg/mL
[11] = Day 6 exposure, 7-day Recovery Post Exposure, 1.0 μg/mL
[12] = Day 8, Continuous Exposure, 0.1 μg/mL
[13] = Day 8 exposure, 7-day Recovery Post Exposure, 1.0 μg/mL
[14] = Day 10, Continuous Exposure, 0.1 μg/mL
[15] = Day 10 exposure, 7-day Recovery Post Exposure, 1.0 μg/mL
[16] = Day 1, Continuous Exposure, 0.01 μg/mL
[17] = Day 1, Continuous Exposure, 0.1 μg/mL
[18] = Day 1, Continuous Exposure, 1.0 μg/mL
[19] = Day 1 exposure, 7-day Recovery Post Exposure, 0.01 μg/mL
[20] = Day 1 exposure, 7-day Recovery Post Exposure, 0.1 μg/mL
[21] = Day 1 exposure, 7-day Recovery Post Exposure, 1.0 μg/mL
[22] = Day 3, Continuous Exposure, 0.01 μg/mL
[23] = Day 3, Continuous Exposure, 0.1 μg/mL
[24] = Day 3 exposure, 7-day Recovery Post Exposure, 0.01 μg/mL
[25] = Day 3 exposure, 7-day Recovery Post Exposure, 0.1 μg/mL
[26] = Day 6, Continuous Exposure, 0.01 μg/mL
[27] = Day 6, Continuous Exposure, 1.0 μg/mL
[28] = Day 6 exposure, 7-day Recovery Post Exposure, 0.01 μg/mL
[29] = Day 6 exposure, 7-day Recovery Post Exposure, 0.1 μg/mL
[30] = Day 8, Continuous Exposure, 0.01 μg/mL
[31] = Day 8, Continuous Exposure, 1.0 μg/mL
[32] = Day 8 exposure, 7-day Recovery Post Exposure, 0.01 μg/mL
[33] = Day 8 exposure, 7-day Recovery Post Exposure, 0.1 μg/mL
[34] = Day 10, Continuous Exposure, 0.01 μg/mL
[35] = Day 10, Continuous Exposure, 1.0 μg/mL
[36] = Day 10 exposure, 7-day Recovery Post Exposure, 0.01 μg/mL
[37] = Day 10 exposure, 7-day Recovery Post Exposure, 0.1 μg/mL

With C=C1[C@@H](C)[C@H]2[C@H](Cc3ccccc3)NC(=O)[C@]23OC(=O)/C=C/[C@H](O)CCC[C@@H](C)C/C=C/[C@H]3[C@@H]1O [cytochalasin B] the “morphological Toxicity Grade” value ([1]; Day 8) was “+4”, the “morphological Toxicity Grade” value ([1]; Day 10) was “+4” and the “incidence of mural microthrombi” value [2] was “decreased”. The “lumen area of test region versus normal control segment of the same artery” value [2] was “approximately two times as large”, the “luminal area versus other test agents or controls” value [2] was “larger luminal area” and the “percent change in treated vs. normal luminal area (increase)” value [2] was “≈ 140%”. The “toxicity to the vascular smooth muscle cells” value [2] was “appeared to be toxic to the vascular smooth muscle cells”, the “± percent change in treated vs. normal luminal area” value [2] was “≈ 20%” and the “BRDU uptake (cell proliferation)” value [3] was “inhibited BRDU uptake (i.e., cell proliferation) without killing the vascular smooth muscle cells”. For the same molecule, the “morphological Toxicity Grade” value [4, 8] was “+3”, the “morphological Toxicity Grade” value [4, 9] was “+1” and the “morphological Toxicity Grade” value [4, 10] was “+1”. The “morphological Toxicity Grade” value [4, 11] was “+3”, the “morphological Toxicity Grade” value [4, 12] was “+1” and the “morphological Toxicity Grade” value [4, 13] was “+3”. For the same molecule, the “morphological Toxicity Grade” value [4, 14] was “+1”, the “morphological Toxicity Grade” value [4, 15] was “+3” and the “minimum effective dose (MED)” value [5] was 10 µg/mL. For the same molecule, the “minimum effective dose (MED)” value [6] was 10 µg/mL, the “ability to migrate following removal of the therapeutic agent” value ([7]; 0.1 μg/ml, even after 10 days of continuous exposure) was “+3 to +4” and the “Migration Grade in an Undisturbed Region of the Well” value [7, 16] was “+3”. For the same molecule, the “Migration Grade in the Cleared Area of the Well” value [7, 16] was “+1”, the “Migration Grade in an Undisturbed Region of the Well” value [7, 17] was “+3” and the “Migration Grade in the Cleared Area of the Well” value [7, 17] was “+1”. The “Migration Grade in an Undisturbed Region of the Well” value [7, 18] was “+2”, the “Migration Grade in the Cleared Area of the Well” value [7, 18] was “−” and the “Migration Grade in an Undisturbed Region of the Well” value [7, 19] was −4. For the same molecule, the “Migration Grade in the Cleared Area of the Well” value [7, 19] was “+3”, the “Migration Grade in an Undisturbed Region of the Well” value [7, 20] was “+4” and the “Migration Grade in the Cleared Area of the Well” value [7, 20] was “+3”. For the same molecule, the “Migration Grade in an Undisturbed Region of the Well” value [7, 21] was “+3”, the “Migration Grade in the Cleared Area of the Well” value [7, 21] was “+2” and the “Migration Grade in an Undisturbed Region of the Well” value [7, 22] was “+4”. The “Migration Grade in the Cleared Area of the Well” value [7, 22] was “+3”, the “Migration Grade in an Undisturbed Region of the Well” value [7, 23] was “+4” and the “Migration Grade in the Cleared Area of the Well” value [7, 23] was “+1”. For the same molecule, the “Migration Grade in an Undisturbed Region of the Well” value [7, 8] was “+2”, the “Migration Grade in the Cleared Area of the Well” value [7, 8] was “−” and the “Migration Grade in an Undisturbed Region of the Well” value [7, 24] was −4. For the same molecule, the “Migration Grade in the Cleared Area of the Well” value [7, 24] was “+3”, the “Migration Grade in an Undisturbed Region of the Well” value [7, 25] was “+4” and the “Migration Grade in the Cleared Area of the Well” value [7, 25] was “+3”. For the same molecule, the “Migration Grade in an Undisturbed Region of the Well” value [7, 9] was “+3”, the “Migration Grade in the Cleared Area of the Well” value [7, 9] was “+2” and the “Migration Grade in an Undisturbed Region of the Well” value [7, 26] was “+4”. For the same molecule, the “Migration Grade in the Cleared Area of the Well” value [7, 26] was “+3”, the “Migration Grade in an Undisturbed Region of the Well” value [7, 10] was “+4” and the “Migration Grade in the Cleared Area of the Well” value [7, 10] was “+2”. For the same molecule, the “Migration Grade in an Undisturbed Region of the Well” value [7, 27] was “+2”, the “Migration Grade in the Cleared Area of the Well” value [7, 27] was “−” and the “Migration Grade in an Undisturbed Region of the Well” value [7, 28] was “+4/+4”. For the same molecule, the “Migration Grade in the Cleared Area of the Well” value [7, 28] was “+4/+4”, the “Migration Grade in an Undisturbed Region of the Well” value [7, 29] was “+4” and the “Migration Grade in the Cleared Area of the Well” value [7, 29] was “+3”. For the same molecule, the “Migration Grade in an Undisturbed Region of the Well” value [7, 11] was “+3”, the “Migration Grade in the Cleared Area of the Well” value [7, 11] was “+2” and the “Migration Grade in an Undisturbed Region of the Well” value [7, 30] was “+4”. The “Migration Grade in the Cleared Area of the Well” value [7, 30] was “+3”, the “Migration Grade in an Undisturbed Region of the Well” value [7, 12] was “+4” and the “Migration Grade in the Cleared Area of the Well” value [7, 12] was “+2”. The “Migration Grade in an Undisturbed Region of the Well” value [7, 31] was “+2”, the “Migration Grade in the Cleared Area of the Well” value [7, 31] was “−” and the “Migration Grade in an Undisturbed Region of the Well” value [7, 32] was “+4/+4”. For the same molecule, the “Migration Grade in the Cleared Area of the Well” value [7, 32] was “+4/+4”, the “Migration Grade in an Undisturbed Region of the Well” value [7, 33] was “+4” and the “Migration Grade in the Cleared Area of the Well” value [7, 33] was “+3”. The “Migration Grade in an Undisturbed Region of the Well” value [7, 13] was “+3”, the “Migration Grade in the Cleared Area of the Well” value [7, 13] was “+2” and the “Migration Grade in an Undisturbed Region of the Well” value [7, 34] was “+4”. The “Migration Grade in the Cleared Area of the Well” value [7, 34] was “+3”, the “Migration Grade in an Undisturbed Region of the Well” value [7, 14] was “+4” and the “Migration Grade in the Cleared Area of the Well” value [7, 14] was “+2”. For the same molecule, the “Migration Grade in an Undisturbed Region of the Well” value [7, 35] was “+2”, the “Migration Grade in the Cleared Area of the Well” value [7, 35] was “−” and the “Migration Grade in an Undisturbed Region of the Well” value [7, 36] was “+4/+4”. The “Migration Grade in the Cleared Area of the Well” value [7, 36] was “+4/+4”, the “Migration Grade in an Undisturbed Region of the Well” value [7, 37] was “+4/+4” and the “Migration Grade in the Cleared Area of the Well” value [7, 37] was “+4/+4”. For the same molecule, the “Migration Grade in an Undisturbed Region of the Well” value [7, 15] was “+3”, the “Migration Grade in the Cleared Area of the Well” value [7, 15] was “+2” and the “migration into the cleared area adjacent to the scratch” value ([7]; dose of 0.1 μg/ml) was “+1 to +2”. The “time to resume migration after cells clear the agent” value ([7]; in vitro data) was no more than 24 h.
